Laboratory results taken from patent US20040006004A1, “Method for prevention and treatment of diseases or disorders related to excessive formation of vascular tissue or blood vessels” (priority 2002, published 2004).

Tested on: NPY Y2 receptor
Test: Hyperoxia/ischemia-induced retinal neovascularization (retinopathy) in newborn rats, fluorescent dextran flat-mount vessel count
Assay type: in vivo, rat (Sprague Dawley)
Conditions: for Retinal capillary vessel formation in fluorescein images: fluorescence microscopy of flat-mounted retinas, FIG. 3; for Quantitated neovascularization (amount of retinal vessels crossed by a constant length line), Mean ± SD / Quantitated neovascularization, Range: newborn rats, intraperitoneal treatment, retinas at age of 20 days; for Quantitated neovascularization (amount of retinal vessels crossed by a constant length line), Mean ± SD: cyclic hyperoxia 40%/80%; for Quantitated neovascularization, Range: cyclic hyperoxia; for Development of retinopathy: treated groups of rat puppies
From the text: The present study was undertaken to determine the impact of NPY Y2 receptor targeted intervention on neovascularization and development of retinopathy. Development of retinopathy was induced to newborn rats by cyclic hyperoxia and following relative ischemia-induced retinal neovascularization. Hyperoxemia is toxic to developing retinal vessels causing damage and hypoxia in the retina. After moving to normal air, relative hypoxia follows further promoting neovascularization of the retina.
Three groups of rat puppies were subjected for different treatments; 1) vehicle, 2) NPY Y2 receptor targeted antisense oligonucleotide sequence, and 3) scramble oligonucleotide sequence containing the same oligonucleotides as NPY Y2 receptor targeted antisense oligonucleotide sequence. The treatments were administered intraperitoneally. The retinal vessels were investigated and retinopathic changes were compared between treatment groups.
Retinopathy was assessed after injection of fluorescent-labelled dextran to the circulation. The eyes were flat-mounted on slides and the retinal vessels were visualized and investigated by fluorescence microscopy. Statistical differences were calculated between the study groups.
Study protocol was approved by the Joint Ethics Committee of Turku University. Development of retinopathy was induced to newborn rats (Sprague Dawley) by cyclic hyperoxia and following relative ischemia. Hyperoxia is toxic to developing retinal vessels causing damage and hypoxia in the retina, which induces neovascularization. After moving to normal air, relative hypoxia follows further promoting neovascularization of the retina. Hypoxia is one of the major causes of retinal neovascularization in human retinopathies also. The newborn rats were kept in a hyperoxic incubator with their mothers. Retinal neovascularization was induced simultaneously for all three groups of puppies. One treatment group consisted originally of 7 puppies, which underwent cyclic hyperoxia at the age of 3 days, continued until at the age of 14 days and remained in normal room air from the age of 14 to 17 days. The amount of oxygen inside the incubator was kept at 40% and 80% in 12 hour cycles for 10 days (days from 3 to 13).
The three groups of puppies were subjected for different treatments; 1) plain vehicle, 2) NPY Y2 receptor targeted antisense oligodeoxynucleotide sequence (5′-CCTCTGCACCTAATGGGCCC-3′ (SEQ ID NO:4), containing 20 thioate modified bases) diluted in vehicle and 3) scramble oligodeoxynucleotide sequence containing the same deoxynucleotides as NPY Y2 receptor targeted antisense oligodeoxynucleotide sequence but in a random order (5′-CCATGGTAATCCGCCGCTCC-3′ (SEQ ID NO:5), containing 20 thioate modified bases) diluted in vehicle. The treatments were administered intraperitoneally. The retinal vessels were investigated and retinopathic changes were compared between treatment groups. The used NPY Y2 receptor targeted antisense deoxynucleotide sequence was designed complementary to next 20 bases from NPY Y2 gene transcription initiation codon (ATG).
At the age of 20 days, rats were decapitated and eyes were collected. Retinopathy and retinal neovascularization was assessed after an injection of fluorescent-labelled dextran to the circulation trough heart puncture. One eye from each puppy was used for visualization of retinal vessels. The eyes were flat-mounted on slides and the retinal vessels were visualized and investigated by fluorescence microscopy. Pictures of retinas were acquired using a Leica DMR/DC 100 microscope and Leica DC Wiever software.
The amount of retinal capillaries was analyzed by counting the amount of vessels crossed by a constant length line using plot profile analysis (Image-J 2.6 program). Each retina was analyzed in 3-5 representative areas and the mean values were used for further statistical analysis. Only unfolded retinal preparations were used in order to avoid artificial images of neovascularization. […]

[1] = post hoc analysis, less neovascularization

Substance	Retinal capillary vessel formation in fluorescein images	Quantitated neovascularization (amount of retinal vessels crossed by a constant length line), Mean ± SD	Quantitated neovascularization, Range	95% confidence interval for the difference compared to scramble treatment group (post hoc analysis)	95% confidence interval for the difference compared to vehicle treatment group (post hoc analysis)	Mean difference in neovascularization compared to scramble treatment group [1]	Mean difference in neovascularization compared to vehicle treatment group [1]	Development of retinopathy	Difference in retinal neovascularization versus vehicle treatment group (post hoc analysis)
5′-CCTCTGCACCTAATGGGCCC-3′ (antisense CCTCTGCACCTAATGGGCCC; DNA, all phosphorothioate, methylation of C not given here) [Y2-antisense, NPY Y2 receptor targeted antisense oligodeoxynucleotide, complementary to rat NPY Y2 mRNA, next 20 bases from initiation codon]	regular and continuous	24.58 ± 0.84	23.75-25.75	3.76-9.31	2.48-8.33	6.53	5.40	prevented	
5′-CCATGGTAATCCGCCGCTCC-3′ (CCATGGTAATCCGCCGCTCC; DNA, all phosphorothioate, methylation of C not given here) [Scramble, reference compound]	irregular and disrupted	31.12 ± 0.93	30.33-32.25					evident	no difference
